# Data from patent US6962713B2, “Spot-on formulations for combating parasites” (Merial, priority 1919, dated 2005).
# Values joined by “and” are separate entries in the source; they are usually repeats but may differ in a detail not shown here. Equal entries are not always repeated.
# Columns and labels:
# [1] = Plasma kinetics of ivermectin after subcutaneous injection of Ivomec to dogs; type: in vivo, dog; details: for Plasma concentrations of ivermectin / Plasma concentrations of ivermectin, Mean: Ivomec subcutaneous 400 μg.kg^−1, dogs
# Method: This study was conducted in order to assess the pharmacokinetics of ivemectin in the dog after subcutaneous administration of Ivomec® at a dose of 400 μg.kg^−1 of ivermectin which is known to be effective on gastrointestinal nematodes and to have a route of reference for further development.
# Five male Beagle dogs were injected a subcutaneous dose of 400 μg.kg^−1 of ivermectin. Blood samples were collected at intervals up to 56 days post-dosing. The determination of ivermectin in dog plasma was carried out by HPLC, using fluorescence detection after derivatization. The limit of quantification was 100 pg.ml^−1.
# [2] = Plasma kinetics of ivermectin after topical (spot-on) application 250 μg.kg in combination with fipronil to dogs; type: in vivo, dog; details: spot-on 0.25% ivermectin + 10% fipronil, 5 dogs
# Method: This study was undertaken in order to assess the pharmacokinetic behaviour of ivermectin and fipronil after a topical (spot-on) application of ivermectin in combination with fipronil to the dog.
# Five male Beagle dogs were applied a spot-on formulation combining ivermectin and fipronil at a dose of 0.1 ml.kg^−1, i.e. 250 μg.kg and 10 mg.kg^−1 of ivermectin and fipronil, respectively. Blood samples were collected at intervals up to 28 days post-treatment. The determination of ivermectin in dog plasma was carried out by HPLC, using fluorescence detection, with a limit of quantification of 100 pg.ml^−1. The determination of fipronil and its sulfone metabolite (RM1602) was carried out by HPLC with UV detection with a limit of quantification of 20 ng.ml^−1 for fipronil and RM1602.
# The formulation tested was as follows: […]
# [3] = Plasma kinetics of ivermectin after spot-on application 250 μg.kg^−1 in combination with fipronil to cats; type: in vivo, cat; details: spot-on 0.25% ivermectin + 10% fipronil, 5 cats
# Method: This study was undertaken in order to assess the pharmacokinetic behaviour of ivermectin after a topical (spot-on) application of a formulation containing 0.25% of ivermectin and 10% of fipronil to the cat. The formulation was as follows: […]
# Five male european cats were treed with the spot-on formulation at a dose of 0.1 ml.kg^−1 (i.e. 250 μg.kg^−1 of ivermectin and 10 mg.kg^−1 of fipronil).
# Blood samples were collected at intervals up to 42 days post-treatment.
# The determination of ivermectin in cat plasma was carried out by a validated HPLC method using fluorescence detection, with a limit of quantification of 100 pg.ml^−1.
# [4] = ivermectin, cited from earlier work
# [5] = system: gastrointestinal nematodes; details: Ivomec subcutaneous, 400 μg.kg^−1 of ivermectin, dog; known; cited from earlier work
# [6] = Ivomec subcutaneous, dose 400 pg.kg^−1 [sic], individual dogs
substance,measurement,setting,value
ivermectin,Plasma concentrations of ivermectin,"[1]; 24 h, individual dogs",19.192 ng/mL and 9.322 ng/mL and 25.996 ng/mL and 13.986 ng/mL and 7.73 ng/mL
same,"Plasma concentrations of ivermectin, Mean","[1]; 24 h, mean of 5 dogs",15.245 ng/mL
same,Plasma concentrations of ivermectin,"[1]; 32 h, individual dogs",21.779 ng/mL and 11.651 ng/mL and 28.569 ng/mL and 18.632 ng/mL and 11.81 ng/mL
same,"Plasma concentrations of ivermectin, Mean","[1]; 32 h, mean of 5 dogs",18.488 ng/mL
same,Plasma concentrations of ivermectin,"[1]; 48 h, individual dogs",26.256 ng/mL and 18.359 ng/mL and 33.716 ng/mL and 27.2 ng/mL and 21.45 ng/mL
same,"Plasma concentrations of ivermectin, Mean","[1]; 48 h, mean of 5 dogs",25.396 ng/mL
same,Plasma concentrations of ivermectin,"[1]; 56 h, individual dogs",23.243 ng/mL and 18.913 ng/mL and 33.887 ng/mL and 20.868 ng/mL and 22.925 ng/mL
same,"Plasma concentrations of ivermectin, Mean","[1]; 56 h, mean of 5 dogs",23.967 ng/mL
same,Plasma concentrations of ivermectin,"[1]; D 3, individual dogs",23.145 ng/mL and 23.181 ng/mL and 38.453 ng/mL and 22.367 ng/mL and 25.089 ng/mL
same,"Plasma concentrations of ivermectin, Mean","[1]; D 3, mean of 5 dogs",26.447 ng/mL
same,Plasma concentrations of ivermectin,"[1]; D 4, individual dogs",19.498 ng/mL and 24.875 ng/mL and 41.257 ng/mL and 22.55 ng/mL and 24.955 ng/mL
same,"Plasma concentrations of ivermectin, Mean","[1]; D 4, mean of 5 dogs",26.627 ng/mL
same,Plasma concentrations of ivermectin,"[1]; D 5, individual dogs",13.068 ng/mL and 21.883 ng/mL and 28.398 ng/mL and 21.501 ng/mL and 21.333 ng/mL
same,"Plasma concentrations of ivermectin, Mean","[1]; D 5, mean of 5 dogs",21.237 ng/mL
same,Plasma concentrations of ivermectin,"[1]; D 7, individual dogs",10.892 ng/mL and 17.8 ng/mL and 21.415 ng/mL and 15.434 ng/mL and 15.695 ng/mL
same,"Plasma concentrations of ivermectin, Mean","[1]; D 7, mean of 5 dogs",16.247 ng/mL
same,Plasma concentrations of ivermectin,"[1]; D 9, individual dogs",5.662 ng/mL and 12.098 ng/mL and 11.892 ng/mL and 10.889 ng/mL and 12.769 ng/mL
same,"Plasma concentrations of ivermectin, Mean","[1]; D 9, mean of 5 dogs",10.662 ng/mL
same,Plasma concentrations of ivermectin,"[1]; D 14, individual dogs",1.924 ng/mL and 5.269 ng/mL and 4.248 ng/mL and 5.752 ng/mL and 6.285 ng/mL
same,"Plasma concentrations of ivermectin, Mean","[1]; D 14, mean of 5 dogs",4.696 ng/mL
same,Plasma concentrations of ivermectin,"[1]; D 21, individual dogs",0.162 ng/mL and 1.034 ng/mL and 0.625 ng/mL and 0.746 ng/mL and 0.903 ng/mL
same,"Plasma concentrations of ivermectin, Mean","[1]; D 21, mean of 5 dogs",0.694 ng/mL
same,Plasma concentrations of ivermectin,"[1]; D 28, individual dogs",BLQ (The limit of quantification was 100 pg.ml^−1) (2×) and 190 pg.ml^−1 and 108 pg.ml^−1 and 119 pg.ml^−1
same,"Plasma concentrations of ivermectin, Mean","[1]; D 28, mean of 5 dogs (BLQ taken as 0)",BLQ (The limit of quantification was 100 pg.ml^−1)
same,Plasma concentrations of ivermectin,"[1]; D 35, individual dogs",BLQ (The limit of quantification was 100 pg.ml^−1)
same,"Plasma concentrations of ivermectin, Mean","[1]; D 35, mean of 5 dogs",BLQ (The limit of quantification was 100 pg.ml^−1)
same,tmax,"[1]; Ivomec subcutaneous, 400 μg.kg^−1, individual dogs",2 d (2×) and 4 d (2×) and 3 d
same,AUC(0-t),[1]; [6],161141 pg·days/mL and 224572 pg·days/mL and 291636 pg·days/mL and 225830 pg·days/mL and 231319 pg·days/mL
same,AUC(0-∞),[1]; [6],161690 pg·days/mL and 225452 pg·days/mL and 294236 pg·days/mL and 226283 pg·days/mL and 231824 pg·days/mL
same,Cmax,[1]; [6],26.256 ng/mL and 24.875 ng/mL and 41.257 ng/mL and 27.2 ng/mL and 25.089 ng/mL
same,t½,[1]; [6],56.4 h and 77 h and 69.1 h and 69.8 h and 70.6 h
same,"t½, Mean","[2]; 250 μg.kg ivermectin, harmonic mean",132 h
same,"AUC(0-t), Mean","[2]; 250 μg.kg ivermectin, mean",19218 pg·days/mL
same,"AUC(0-∞), Mean","[2]; 250 μg.kg ivermectin, mean",22842 pg·days/mL
same,"Tlast, Mean","[2]; 250 μg.kg ivermectin, mean",21 days
same,"tmax, Mean","[2]; 250 μg.kg ivermectin, mean",110 h
same,"Cmax, Mean","[2]; 0.1 ml.kg^−1 (250 μg.kg ivermectin), mean",1.618 ng/mL
same,"t1/2 β, Mean","[3]; 250 μg.kg^−1 ivermectin, harmonic mean",9.1 d and 9.07* d
same,"AUC (0-Clast), Mean","[3]; 250 μg.kg^−1 ivermectin, mean",23441 pg·days/mL
same,"AUC(0-∞), Mean","[3]; 250 μg.kg^−1 ivermectin, mean",26546 pg·days/mL
same,"Tlast, Mean","[3]; 250 μg.kg^−1 ivermectin, mean",35 days
same,"tmax, Mean","[3]; 250 μg.kg^−1 ivermectin, mean",134 h
same,"AUC(0-∞), Range","[3]; 250 μg.kg^−1 ivermectin, range over cats",[14199-52232] pg.d.ml^−1
same,"Cmax, Mean","[3]; 0.1 ml.kg^−1 (250 μg.kg^−1 ivermectin), mean",1.465 ng/mL
same,"tmax, literature data",[4]; food state of dogs not specified,2 to 4 h
same,"AUC, mean literature values",[4],107.318 ng·h/mL
same,"Cmax, mean literature values",[4],more than 2000 pg. ml^−1
same,effective on gastrointestinal nematodes,[5],effective
